Data as given in patent US9938257B2 (Sunshine Lake Pharma Co., Ltd., priority 2015, dated 2018).
pIC50: −log10 of the molar value.

What was measured:
[1] = Compound stability in human liver microsomes; type: in vitro ADME; details: pH 7.4; for half-life at 5 μM: human liver microsomes 0.5 mg protein/mL, compound 5 μM, NADPH 1.0 mM, 37° C., read-out: Human T1/2; for CLint scaled at 5 μM: human liver microsomes, in vivo CLint extrapolated
Experimental: (§1) Human or rat liver microsomes incubations were conducted in duplicate in polypropylene tubes. The typical incubation mixtures consisted of human or rat liver microsomes (0.5 mg protein/mL), compounds of interest (5 μM) and NADPH (1.0 mM) in a total volume of 200 μL potassium phosphate buffer (PBS, 100 mM, pH 7.4). Compounds were dissolved in DMSO and diluted with PBS such that the final concentration of DMSO was 0.05%. The enzymatic reactions were commenced with the addition of protein after a 3-min preincubation and incubated in a water bath open to the air at 37° C. Reactions were terminated at various time points (0, 5, 10, 15, 30, 60 min) by adding equal volume of ice-cold acetonitrile. The samples were stored at −80° C. until LC/MS/MS assays.
(§2) The concentrations of compounds in the incubation mixtures of human or rat liver microsomes were determined by a LC/MS/MS method. The ranges of the linearity in the concentration range were determined for each tested compounds.
(§3) A parallel incubation was performed using denatured microsomes as the negative control, and reactions were terminated at various time points (0, 15, 60 min) after incubation at 37° C.
(§4) Dextromethorphan (70 μM) was selected as the positive control, and reactions were terminated at various time points (0, 5, 10, 15, 30, 60 min) after incubation at 37° C. Both positive and negative control samples were included in each assay to ensure the integrity of the microsomal incubation system.
(§5) The concentrations of compounds in human or rat liver microsome incubations were plotted as a percentage of the relevant zero time point control for each reaction. The in vivo CLint were extrapolated (ref.: Naritomi, Y.; Terashita, S.; Kimura, S.; Suzuki, A.; Kagayama, A.; and Sugiyama, Y.; Prediction of human hepatic clearance from in vivo animal experiments and in vitro metabolic studies with liver microsomes from animals and humans. Drug Metab. Dispos., 2001, 29: 1316-1324).

[2] = target: Aurora-A (h) (Homo sapiens (Human), UniProt O14965); test: Aurora-A (h) kinase activity assay; type: biochemical
Aurora-A (h), sequence (O14965 whole entry): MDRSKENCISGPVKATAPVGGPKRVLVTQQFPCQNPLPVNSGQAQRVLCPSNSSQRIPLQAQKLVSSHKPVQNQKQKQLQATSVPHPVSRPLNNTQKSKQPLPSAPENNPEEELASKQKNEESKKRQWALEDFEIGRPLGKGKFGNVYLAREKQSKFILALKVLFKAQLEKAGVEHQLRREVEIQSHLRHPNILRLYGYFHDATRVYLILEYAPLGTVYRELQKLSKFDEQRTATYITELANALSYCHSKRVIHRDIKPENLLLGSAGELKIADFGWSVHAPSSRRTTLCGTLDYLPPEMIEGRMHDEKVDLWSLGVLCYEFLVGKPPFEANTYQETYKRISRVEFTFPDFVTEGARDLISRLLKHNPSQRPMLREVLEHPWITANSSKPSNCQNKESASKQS
Experimental: (§6) The above assay procedure can be used to determine the IC50 for inhibition and/or the inhibition constant, Ki. The IC50 is defined as the concentration of compound required to reduce the enzyme activity by 50% under the condition of the assay. The IC50 value is estimated by preparing a 10 point curve using a ½ log dilution series (for example, a typical curve may be prepared using the following compound concentrations: 3 μM, 1 μM, 0.3 μM, 0.1 μM, 0.03 μM, 0.01 μM, 0.003 μM, 0.001 μM, 0.0003 μM and 0 μM).
(§7) Aurora-A (h) is incubated with 8 mM MOPS pH 7.0, 0.2 mM EDTA, 200 μM LRRASLG (Kemptide), 10 mM MgAcetate and [γ-^33P-ATP] (specific activity approx. 500 cpm/pmol, concentration as required). The reaction is initiated by the addition of the MgATP mix. After incubation for 40 minutes at room temperature, the reaction is stopped by the addition of 3% phosphoric acid solution. 10 μL of the reaction is then spotted onto a P30 filtermat and washed three times for 5 minutes in 75 mM phosphoric acid and once in methanol prior to drying and scintillation counting.
(§8) The kinase assays described herein were performed at Millipore UK Ltd, Dundee Technology Park, Dundee DD2 1SW, UK.

[3] = Compound stability in rat liver microsomes; type: in vitro ADME; details: pH 7.4; for half-life at 5 μM: rat liver microsomes 0.5 mg protein/mL, compound 5 μM, NADPH 1.0 mM, 37° C., read-out: Rat T1/2; for CLint scaled at 5 μM: rat liver microsomes, in vivo CLint extrapolated
Experimental: as §1, §2, §3, §4, §5

[4] = target: JAK1 (h) (Homo sapiens (Human), UniProt P23458); test: JAK1 (h) kinase activity assay; type: biochemical
JAK1 (h), sequence (P23458 whole entry): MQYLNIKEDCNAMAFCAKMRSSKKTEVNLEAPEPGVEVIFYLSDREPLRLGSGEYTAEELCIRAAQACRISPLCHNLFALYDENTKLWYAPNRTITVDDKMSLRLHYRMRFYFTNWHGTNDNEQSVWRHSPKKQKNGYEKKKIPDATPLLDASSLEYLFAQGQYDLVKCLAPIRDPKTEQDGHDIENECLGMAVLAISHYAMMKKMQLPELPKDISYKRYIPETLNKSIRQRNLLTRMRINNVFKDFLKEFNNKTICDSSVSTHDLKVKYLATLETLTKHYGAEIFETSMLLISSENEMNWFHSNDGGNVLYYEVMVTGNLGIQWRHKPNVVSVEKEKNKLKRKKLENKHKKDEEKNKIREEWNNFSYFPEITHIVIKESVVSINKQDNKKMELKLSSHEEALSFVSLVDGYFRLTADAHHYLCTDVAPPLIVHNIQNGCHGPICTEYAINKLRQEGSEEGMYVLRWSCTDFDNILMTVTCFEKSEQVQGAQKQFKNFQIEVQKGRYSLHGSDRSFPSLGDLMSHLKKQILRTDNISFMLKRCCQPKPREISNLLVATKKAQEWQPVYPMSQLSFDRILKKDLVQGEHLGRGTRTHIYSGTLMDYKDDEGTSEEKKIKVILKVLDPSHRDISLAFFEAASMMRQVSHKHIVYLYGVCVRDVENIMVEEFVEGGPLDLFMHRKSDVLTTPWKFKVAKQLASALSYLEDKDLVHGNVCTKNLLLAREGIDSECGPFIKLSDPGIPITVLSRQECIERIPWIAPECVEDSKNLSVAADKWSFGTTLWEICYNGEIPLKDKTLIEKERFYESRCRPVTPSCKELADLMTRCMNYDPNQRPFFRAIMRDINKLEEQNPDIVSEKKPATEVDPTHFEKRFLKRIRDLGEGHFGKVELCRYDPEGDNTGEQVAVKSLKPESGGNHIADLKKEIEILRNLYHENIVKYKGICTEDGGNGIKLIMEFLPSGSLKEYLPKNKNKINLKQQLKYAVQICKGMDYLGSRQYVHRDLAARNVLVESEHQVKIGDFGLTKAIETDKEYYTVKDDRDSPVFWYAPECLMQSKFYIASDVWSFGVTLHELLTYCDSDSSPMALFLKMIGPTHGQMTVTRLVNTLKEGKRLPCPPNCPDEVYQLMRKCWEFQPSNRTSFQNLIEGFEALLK
Experimental: as §6
as §7, with “JAK1” for “Aurora-A”, “20” for “8”, “Tris/HCl” for “MOPS”, “7.5,” for “7.0,”, “500” for “200”, “GEEPLYWSFPAKKK,” for “LRRASLG (Kemptide),”
as §8

[5] = Pharmacokinetics after intravenous and oral administration in rats; type: in vivo; details: for Clearance (CL) after iv dosing / AUC(0-t) / half-life / Vd: dose 1 mg/kg, iv dosing; for F: oral bioavailability, iv dose 1 mg/kg; for AUC(0-t) / half-life / Vd: rat, plasma; for Vd: read-out: Vss
Experimental: The compounds disclosed herein are assessed in pharmacokinetic studies in mice, rats, dogs or monkeys. The compounds are administered as a water solution, 2% HPMC+1% TWEEN®80 in water solution, 5% DMSO+5% solutol in saline, 4% MC suspension or capsule. For the intravenous administration, the animals are generally given at 0.5, 1 or 2 mg/kg dose. For the oral (p.o.) dosing, mice and rats are generally given 0.5, 1, 5 or 10 mg/kg dose, and dogs and monkeys are generally given 10 mg/kg dose. The blood samples (0.3 mL) are drawn at 0.25, 0.5, 1.0, 2.0, 3.0, 4.0, 6.0, 8.0, 12 and 24 h time points or 0.083, 0.25, 0.5, 1.0, 2.0, 4.0, 6.0, 8.0 and 24 h time points and centrifuged at 3,000 or 4000 rpm for 2 to 10 min. The plasma solutions are collected, and stored at −20° C. or −70° C. until analyzed by LC/MS/MS as described above.

[6] = target: Aurora-B (h) (Homo sapiens (Human), UniProt Q96GD4); test: Aurora-B (h) kinase activity assay; type: biochemical
Aurora-B (h), sequence (Q96GD4 whole entry): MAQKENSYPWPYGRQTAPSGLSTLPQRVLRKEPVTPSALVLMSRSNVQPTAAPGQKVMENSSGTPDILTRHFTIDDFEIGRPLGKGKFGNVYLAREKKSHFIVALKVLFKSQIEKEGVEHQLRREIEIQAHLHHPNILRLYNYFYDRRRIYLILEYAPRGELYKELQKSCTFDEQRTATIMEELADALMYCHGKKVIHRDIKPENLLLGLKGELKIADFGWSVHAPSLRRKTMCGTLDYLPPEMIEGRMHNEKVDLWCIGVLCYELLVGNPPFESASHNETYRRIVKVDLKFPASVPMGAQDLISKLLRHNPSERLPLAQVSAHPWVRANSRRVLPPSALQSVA
Experimental: as §6
Aurora-B (h) is incubated with 8 mM MOPS pH 7.0, 0.2 mM EDTA, 30 μM AKRRRLSSLRA, 10 mM MgAcetate and [γ-^33PATP] (specific activity approx. 500 cpm/pmol, concentration as required). The reaction is initiated by the addition of the MgATP mix. After incubation for 40 minutes at room temperature, the reaction is stopped by the addition of a 3% phosphoric acid solution. 10 μL of the reaction is then spotted onto a P30 filtermat and washed three times for 5 minutes in 75 mM phosphoric acid and once in methanol prior to drying and scintillation counting.
as §8

Structure (SMILES)	half-life at 5 μM [1] [min]	CLint scaled at 5 μM [1] [mL/min/kg]	pIC50 [2]	half-life at 5 μM [3] [min]	CLint scaled at 5 μM [3] [mL/min/kg]	pIC50 [4]	Clearance (CL) after iv dosing [5] [mL/min/kg]	F [5] [%]	AUC(0-t) [5] [ng·h/mL]	half-life [5] [min]	Vd [5] [L/kg]	pIC50 [6]
Cn1cc(Nc2ncc(Cl)c(NC3CC4CN(C(=O)NC5CC5)CC4C3)n2)cn1 (stereo not shown) [Ex. 19, 5-((5-chloro-2-((1-methyl-1H-pyrazol-4-yl)amino)pyrimidin-4-yl)amino)-N-cyclopropylhexahydrocyclopenta[c]pyrrole-2(1H)-carboxamide]	178	9.78	8.10	96.9	25.6	7.64	63.7	24.0	263	21	0.95	9.00
CCNS(=O)(=O)N1CC2CC(Nc3nc(Nc4cnn(C)c4)ncc3Cl)CC2C1 (stereo not shown) [Ex. 24, 5-((5-chloro-2-((1-methyl-1H-pyrazol-4-yl)amino)pyrimidin-4-yl)amino)-N-ethylhexahydrocyclopenta[c]pyrrole-2(1H)-sulfonamide]	34	51.2	8.52	9.3	267	8.70	75.8	31.9	231	24	2.02	9.15
Cn1cc(Nc2ncc(Cl)c(NC3CC4CN(S(=O)(=O)NC5CC5)CC4C3)n2)cn1 (stereo not shown) [Ex. 34, 5-((5-chloro-2-((1-methyl-1H-pyrazol-4-yl)amino)pyrimidin-4-yl)amino)-N-cyclopropylhexahydrocyclopenta[c]pyrrole-2(1H)-sulfonamide]	35.7	48.6	9.00	17.8	140	8.52	48.8	54.0	348	17.4	1.18	9.10
CC(O)Cn1cc(Nc2ncc(Cl)c(NC3CC4CN(S(C)(=O)=O)CC4C3)n2)cn1 (stereo not shown) [Ex. 38, 1-(4-((5-chloro-4-((2-(methylsulfonyl)octahydrocyclopenta[c]pyrrol-5-yl)amino)pyrimidin-2-yl)amino)-1H-pyrazol-1-yl)propan-2-ol]	67.1	25.9	9.10	45.5	54.6	9.00	62.8	35.3	270	25.2	1.65	9.00
CC(C)(O)Cn1cc(Nc2ncc(Cl)c(NC3CC4CN(S(C)(=O)=O)CC4C3)n2)cn1 (stereo not shown) [Ex. 39, 1-(4-((5-chloro-4-((2-(methylsulfonyl)octahydrocyclopenta[c]pyrrol-5-yl)amino)pyrimidin-2-yl)amino)-1H-pyrazol-1-yl)-2-methylpropan-2-ol]	49.6	35	8.70	39.2	63.3	8.70	96	40.5	295	38.4	1.88	9.00
CC(O)Cn1cc(Nc2ncc(Cl)c(NC3CC4CN(S(=O)(=O)C5CC5)CC4C3)n2)cn1 (stereo not shown) [Ex. 44, 1-(4-((5-chloro-4-((2-(cyclopropylsulfonyl)octahydrocyclopenta[c]pyrrol-5-yl)amino)pyrimidin-2-yl)amino)-1H-pyrazol-1-yl)propan-2-ol]	–	–	8.30	–	–	–	60.8	31.4	276	51.6	1.75	9.00
CCNS(=O)(=O)N1CC2CC(Nc3nc(Nc4cnn(CC(C)O)c4)ncc3Cl)CC2C1 (stereo not shown) [Ex. 45, 5-((5-chloro-2-((1-(2-hydroxypropyl)-1H-pyrazol-4-yl)amino)pyrimidin-4-yl)amino)-N-ethylhexahydrocyclopenta[c]pyrrole-2(1H)-sulfonamide]	–	–	8.30	–	–	–	62.3	27.1	267	39.6	1.97	9.10
CC(O)Cn1cc(Nc2ncc(Cl)c(NC3CC4CN(S(=O)(=O)CC5CC5)CC4C3)n2)cn1 (stereo not shown) [Ex. 46, 1-(4-((5-chloro-4-((2-((cyclopropylmethyl)sulfonyl)octahydrocyclopenta[c]pyrrol-5-yl)amino)pyrimidin-2-yl)amino)-1H-pyrazol-1-yl)propan-2-ol]	–	–	8.00	–	–	–	60.7	24.9	277	15.6	1.13	9.00
CC(O)Cn1cc(Nc2ncc(Cl)c(NC3CC4CN(S(=O)(=O)NC5CC5)CC4C3)n2)cn1 (stereo not shown) [Ex. 47, 5-((5-chloro-2-((1-(2-hydroxypropyl)-1H-pyrazol-4-yl)amino)pyrimidin-4-yl)amino)-N-cyclopropylhexahydrocyclopenta[c]pyrrole-2(1H)-sulfonamide]	–	–	8.15	–	–	–	69.3	22.4	239	42.6	2.37	9.22
